These results are taken from patent US20260085073A1, “PYRAZOLYLCARBOXAMIDE COMPOUNDS AND THEIR USE IN THERAPY” (Hotspot Therapeutics, Inc., priority 2022, published 2026).

A value given as a limit tells only on which side of the number the result lay.

The experiment addresses T1, MALT1 (Homo sapiens, UniProt Q9UDY8).
T1 construct: Avi-tagged FL MALT-1 (Pharmaron, stored at −70° C.); Avi-tag
T1 sequence (Q9UDY8 1-824): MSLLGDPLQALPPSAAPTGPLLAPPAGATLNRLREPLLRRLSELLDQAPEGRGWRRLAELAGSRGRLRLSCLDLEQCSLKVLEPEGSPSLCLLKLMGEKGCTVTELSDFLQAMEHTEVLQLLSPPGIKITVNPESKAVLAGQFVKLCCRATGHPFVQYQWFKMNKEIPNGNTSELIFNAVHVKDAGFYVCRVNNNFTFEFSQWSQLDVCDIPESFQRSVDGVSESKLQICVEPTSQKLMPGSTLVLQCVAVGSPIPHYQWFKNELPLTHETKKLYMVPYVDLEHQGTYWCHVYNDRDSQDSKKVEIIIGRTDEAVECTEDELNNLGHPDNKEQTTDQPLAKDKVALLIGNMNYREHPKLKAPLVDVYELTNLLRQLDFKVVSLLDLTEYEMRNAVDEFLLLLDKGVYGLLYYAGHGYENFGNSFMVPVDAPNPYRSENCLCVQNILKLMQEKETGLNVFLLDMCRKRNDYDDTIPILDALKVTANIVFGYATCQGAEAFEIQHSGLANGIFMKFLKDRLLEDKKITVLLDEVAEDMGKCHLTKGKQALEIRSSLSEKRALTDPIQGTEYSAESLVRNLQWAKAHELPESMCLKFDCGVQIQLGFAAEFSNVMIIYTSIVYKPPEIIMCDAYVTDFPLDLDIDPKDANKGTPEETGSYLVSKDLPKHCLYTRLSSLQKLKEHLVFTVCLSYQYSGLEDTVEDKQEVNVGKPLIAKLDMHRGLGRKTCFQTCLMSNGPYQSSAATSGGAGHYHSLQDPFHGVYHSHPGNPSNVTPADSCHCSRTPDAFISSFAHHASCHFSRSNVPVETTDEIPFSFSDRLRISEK
In words: MALT1 inhibition assay (MALT-1 Fluorogenic Peptide Cleavage Assay, Ac-LRSR-AMC substrate). It counts as biochemical. As to conditions: Avi-tagged FL MALT-1, 30 min pre-incubation, 90 min reaction at room temperature, fluorescence intensity. As to the method:
Example 71—MALT1 Inhibition Assay
Compounds were tested for ability to bind to MALT1.
Inhibition of MALT1 activity by the presence of small molecules was evaluated using MALT-1 Fluorogenic Peptide Cleavage Assay. The assay utilizes a quenched AMC-labelled peptide that contains the MALT-1 recognition sequence and cleavage site (LRSR). MALT-1 mediated cleavage of the peptide relieves the quenching and leads to an increase in fluorescence at excitation (342 nm) and emission (441 nm).
The following reagents were obtained commercially and used to prepare standard reagent formulations as further described below: N-2-hydroxyethylpiperazine-N-2-ethane sulfonic acid (HEPES) (1 M, pH 7.5, stored at 4° C.), sodium citrate (stored at RT), tris(2-carboxyethyl) phosphine hydrochloride (T-CEP) (500 mM, stored at −20° C.), ethylenediaminetetraacetic acid (EDTA) (500 mM, stored at RT), dimethylsulfoxide (DMSO, stored at RT), 3-[(3-cholamidopropyl)dimethylammonio]-1-propane sulphate (CHAPS) (stored at RT), dimethylsulfoxide (DMSO), DMSO (Fisher Scientific, stored at RT), Avi-tagged FL MALT-1 (Pharmaron, stored at −70° C.), Ac-LRSR-AMC Peptide (SM Biochemicals, stored at −20° C.), and ultrapure water (MILLI-QR).
The standard reagent formulations used in this assay were prepared and stored as follows. A 1.1 M solution of sodium citrate (161.3 g, 500 mL) was prepared and stored at room temperature. A 10% (w/v) CHAPS solution (2.0 g, 20 mL) was prepared and stored at 4° C. A 500 mM HEPES solution having pH of 6.89 was prepared from 200 mL of a 1 M HEPES solution having a pH of 7.5 using concentrated hydrochloric acid and brought to a final volume of 400 mL with MILLI-QR H2O. The substrate, 10 mM Ac-LRSR-AMC Peptide, was prepared (10 mg, 1.370 mL DMSO) and stored at −20° C.
Compounds were plated to provide a 2% DMSO final concentration using a ProxiPlate-384 Plus F Black 384-shallow well microplate. The assay-ready plates were equilibrated to room temperature. A reaction buffer (30 mL total volume) was prepared by combining HEPES (pH 6.89, 25 mM, 1.5 mL), sodium citrate (660 mM, 18.0 mL), T-CEP (1 mM, 0.06 mL), EDTA ([…], 0.06 mL), CHAPS (0.05%, 0.15 mL), DMSO (2%, 0.6 mL), and MILLI-QR H2O (10.23 mL; 9.63 mL when backfilled to 2% DMSO) followed by thorough mixing. DMSO was added only when compound plates had not been DMSO-backfilled to 2%.
MALT-1 was thawed and kept on ice. Peptide substrate was thawed on the bench under ambient conditions. A MALT-1 enzyme working stock was prepared from Avi-tagged FL MALT-1 (40 nM in a prepared reagent volume of 16.5 μL) and the reaction buffer (13.0 mL). MALT1 working stock (5 μL) was added to each well of the microplate. MALT-1 was pre-incubated with compounds for 30 minutes at room temperature.
Two substrate working stocks (Km and 10×Km) were prepared. The 1×Km substrate was prepared from Ac-LRSR-AMC Peptide (50 μM in a prepared reagent volume of 35.0 μL) and the reaction buffer (6.965 mL). The 10×Km substrate was prepared from Ac-LRSR-AMC Peptide (280 μM in a prepared reagent volume of 196.0 μL) and the reaction buffer (6.804 mL). The reaction was initiated by the addition of substrate working stock (5 μL, 50 μM) to Km plates and the addition of substrate working stock (5 μL 280 μM) to 10×Km plates. The plates were covered and incubated on the bench at room temperature for 90 minutes.
Fluorescence intensity was determined using a CLARIOstar microplate reader (BMG LABTECH) using the optimised AMC mode. Before taking readings, a 70% gain was applied on the neutral control well. Compound data were normalised to % Inhibition and used to plot sigmoidal concentration response curves to yield various parameters including IC50.

For `Cn1nc(-c2cccc3ncsc23)c(C(F)(F)F)c1C(=O)Nc1cnc(-n2nccn2)c(C(F)F)c1` [Compound I-286], the IC50 was less than 500 nM.

As to `Cn1nc(-c2cccc3ccoc23)c(C(F)(F)F)c1C(=O)Nc1cnc(-n2nccn2)c(Cl)c1` [Compound I-129], the IC50 is less than 500 nM.

Regarding `Cn1nc(-c2cccc3[nH]ccc23)c(C(F)(F)F)c1C(=O)Nc1ccnc(C(F)(F)F)c1` [Compound I-97], the IC50 lay within 500 to 2500 nM.

Consider `Cn1nc2c(c1C(=O)Nc1cnc(-n3nccn3)c(Cl)c1)CCOc1ccccc1-2` [Compound I-256], for which the IC50 is more than 10000 nM.

`Cn1nc(-c2ccc(F)c(N)n2)c(C(F)(F)F)c1C(=O)Nc1ccnc(C(F)(F)F)c1` [Compound I-196, 3-(6-amino-5-fluoropyridin-2-yl)-1-methyl-4-(trifluoromethyl)-N-(2-(trifluoromethyl)pyridin-4-yl)-1H-pyrazole-5-carboxamide]: the IC50 was 500 to 2500 nM.

With `Cc1cc(NC(=O)c2c(C(F)(F)F)c(-c3ccccc3)nn2C)cnc1-n1nccn1` [Compound I-135], the IC50 fell in the range of 500 to 2500 nM.

On to `Cn1nc(-c2cccc3nccnc23)c(C(F)(F)F)c1C(=O)Nc1ccnc(C(F)(F)F)c1` [Compound I-21], for which the IC50 is 500 to 2500 nM.

Molecule `Cn1nc(-c2cccc3c2OCC3)c(C(F)(F)F)c1C(=O)Nc1cnc(-n2nccn2)c(Cl)c1` [Compound I-159] had an IC50 of less than 500 nM.

For `Cn1nc(-c2cccc3ncoc23)c(C(F)(F)F)c1C(=O)Nc1ccnc(C(F)(F)F)c1` [Compound I-11], the IC50 is less than 500 nM.

Turning to `O=C(Nc1ccnc(C(F)(F)F)c1)c1nn(C2CC2)c(-c2ccccc2)c1C(F)(F)F` [Compound I-192], the IC50 fell in the range of 500 to 2500 nM.

Regarding `Cn1nc(-c2ccccc2)c(C(F)(F)F)c1C(=O)Nc1ccc(C(=O)N2CC(O)C2)c(Cl)c1` [Compound I-150], the IC50 was 2500 to 10000 nM.

`Cn1nc(-c2cccc3oncc23)c(C(F)(F)F)c1C(=O)Nc1ccnc(C(F)(F)F)c1` [Compound I-246] had an IC50 of 2500 to 10000 nM.

In the case of `Cc1cn2c(-c3nn(C)c(C(=O)Nc4ccnc(C(F)(F)F)c4)c3C(F)(F)F)cccc2n1` [Compound I-229], the IC50 lay within 2500 to 10000 nM.

Molecule `Cn1nc2c(c1C(=O)Nc1cnc(-n3nccn3)c(Cl)c1)CCCc1ccccc1-2` [Compound I-254] gave an IC50 of 500 to 2500 nM.

`Cn1nc(-c2cccc3ccsc23)c(C(F)(F)F)c1C(=O)Nc1ccnc(C(F)(F)F)c1` [Compound I-99] gave an IC50 of less than 500 nM.

The molecule `Cn1nc(-c2cccc3c(=O)[nH]ccc23)c(C(F)(F)F)c1C(=O)Nc1cnc(-n2nccn2)c(C(F)(F)F)c1` [Compound I-132] registered an IC50 of less than 500 nM.

Consider `Cn1nc(-c2cccc3ncsc23)c(C(F)(F)F)c1C(=O)Nc1ccnc(C(F)(F)F)c1` [Compound I-60], for which the IC50 is less than 500 nM.

Consider `Cn1nc(-c2cccc3cccnc23)c(C(F)(F)F)c1C(=O)Nc1ccnc(C(F)(F)F)c1` [Compound I-7], for which the IC50 was in the range of 500 to 2500 nM.

The molecule `Cn1nc(-c2cc(N)ncc2Cl)c(C(F)(F)F)c1C(=O)Nc1ccnc(C(F)(F)F)c1` [Compound I-198] showed an IC50 of less than 500 nM.

As to `Cn1nc(-c2ccc3cnccc3c2)c(C(F)(F)F)c1C(=O)Nc1ccnc(C(F)(F)F)c1` [Compound I-37], the IC50 is more than 10000 nM.

Molecule `Cn1nc(-c2cccc3cnoc23)c(C(F)(F)F)c1C(=O)Nc1ccnc(C(F)(F)F)c1` [Compound I-236] returned a concentration for half-maximal inhibition (IC50) of 2500 to 10000 nM.

`Cn1nc(-c2cccc3ncccc23)c(C(F)(F)F)c1C(=O)Nc1cnc(-n2nccn2)c(C(F)F)c1` [Compound I-121] displayed an IC50 of less than 500 nM.

Consider `COc1nc2cccc(-c3nn(C)c(C(=O)Nc4cnc(-n5nccn5)c(Cl)c4)c3C(F)(F)F)c2s1` [Compound I-294], for which the IC50 is less than 500 nM.

For `Cn1nc(-c2ccccc2)c(C(F)(F)F)c1C(=O)Nc1cnc(-n2nccn2)c(C#N)c1` [Compound I-153], the IC50 is less than 500 nM.

With `Cn1nc(-c2cccc3c2OCC(=O)N3)c(C(F)(F)F)c1C(=O)Nc1ccnc(C(F)(F)F)c1` [Compound I-2], the concentration for half-maximal inhibition (IC50) lay within 2500 to 10000 nM.

In the case of `Cn1nc(-c2c[nH]c3ncncc23)c(C(F)(F)F)c1C(=O)Nc1ccnc(C(F)(F)F)c1` [Compound I-202, 1-methyl-3-(7H-pyrrolo[2,3-d]pyrimidin-5-yl)-4-(trifluoromethyl)-N-(2-(trifluoromethyl)pyridin-4-yl)-1H-pyrazole-5-carboxamide], the IC50 is more than 10000 nM.

The molecule `Cn1nc(C(=O)Nc2cnc(-n3nccn3)c(Cl)c2)c2c1-c1ccccc1CCC2` [Compound I-255] gave an IC50 of more than 10000 nM.

As for `O=C(Nc1cnc(-n2nccn2)c(Cl)c1)c1c(C(F)(F)F)c(-c2ccccc2)nn1C(F)F` [Compound I-179, N-(5-chloro-6-(2H-1,2,3-triazol-2-yl)pyridin-3-yl)-1-(difluoromethyl)-3-phenyl-4-(trifluoromethyl)-1H-pyrazole-5-carboxamide], the IC50 is less than 500 nM.

Turning to `Cn1nc(-c2cccc3nccn23)c(C(F)(F)F)c1C(=O)Nc1ccnc(C(F)(F)F)c1` [Compound I-13], the concentration for half-maximal inhibition (IC50) lay in the range of 500 to 2500 nM.

As to `Cn1nc(-c2cccc3occc23)c(C(F)(F)F)c1C(=O)Nc1ccnc(C(F)(F)F)c1` [Compound I-47], the IC50 is less than 500 nM.

`Cn1nc(-c2cnn3ccccc23)c(C(F)(F)F)c1C(=O)Nc1ccnc(C(F)(F)F)c1` [Compound I-69] had an IC50 of 2500 to 10000 nM.

On to `Cn1nc(-c2cc(OC3COC3)ccc2Cl)c(C(F)(F)F)c1C(=O)Nc1ccnc(C(F)(F)F)c1` [Compound I-93], for which the IC50 was 500 to 2500 nM.

On to `Cn1nc(-c2cccc3cncn23)c(C(F)(F)F)c1C(=O)Nc1ccnc(C(F)(F)F)c1` [Compound I-224], for which the 50% inhibitory concentration (IC50) fell in the range of 500 to 2500 nM.

`Cn1nc(-c2cccc3c(=O)[nH]ccc23)c(C(F)(F)F)c1C(=O)Nc1cnc(-n2nccn2)c(Cl)c1` [Compound I-133] came in with an IC50 of less than 500 nM.

As for `Cn1nc(-c2cccc3nc[nH]c23)c(C(F)(F)F)c1C(=O)Nc1ccnc(C(F)(F)F)c1` [Compound I-10], the half-inhibitory concentration (IC50) was in the range of 500 to 2500 nM.

`Cn1nc(-c2csc3ccccc23)c(C(F)(F)F)c1C(=O)Nc1ccnc(C(F)(F)F)c1` [Compound I-92] showed an IC50 of less than 500 nM.

What is called IC50 is the concentration at which inhibition is half-maximal.
